{
  "source": "patent EP0404115A1",
  "about": "“Bis(benzylpyrrolidine)Derivatives as dopamine agonists” (SYNTEX (U.S.A.) INC., priority 1989, dated 1990)",
  "key": {"[1]": {"conditions": "cited from earlier work"}, "DA₂ receptor": {"system": "DA₂ receptor", "assay": "Goldberg femoral in vivo dog model (DA2 activity, intra-arterial)", "experimental": "The compounds were subsequently tested following intra-arterial administration in an in situ renal and femoral arterial preparation in the dog, as developed by L.I. Goldberg, to test for DA1 and DA2 dopamine activity, respectively. Details of the methodology are provided in the European J. Pharmacol., 89:137, 1983, as well as in Hypertension, 6:1-25, 1984.\nThe compound was injected directly into the renal or femoral artery for analysis of DA₁ or DA₂ activity, respectively. […] The compound was tested for relative activity in comparison to the standard DA₁ agonist, dopamine or the standard DA₂ agonist, DPDA. Specific DA₁ or DA₂ activity of the tested compound was verified by Sch 23390 or domperidone blockade.\nAdult mongrel dogs of either sex (11-20 kg) were anesthetized with pentobarbital sodium (33 mg/kg, i.v.). the animals were intubated and ventilated with room air using a Harvard respirator. […]\nThe optimal dose of compound was defined as that which produced a maximum increase in blood flow before causing a change in systemic blood pressure. Efficacy ratios were determined by division of the optimal response of the test compound by the optimal response of the standard agent. […] Potency ratios were the quotients calculated from the division of the standard agent ED₅₀ by the ED₅₀ of the test compound. […]"}, "DA₁ receptor": {"system": "DA₁ receptor", "assay": "Goldberg renal in vivo dog model (DA1 activity, intra-arterial)", "conditions": "for Relative Efficacy to DA₁ Standard: optimal response divided by optimal response of dopamine", "experimental": "The compounds were subsequently tested following intra-arterial administration in an in situ renal and femoral arterial preparation in the dog, as developed by L.I. […] Details of the methodology are provided in the European J. […] The compound was injected directly into the renal or femoral artery for analysis of DA₁ or DA₂ activity, respectively. […] Specific DA₁ or DA₂ activity of the tested compound was verified by Sch 23390 or domperidone blockade. Adult mongrel dogs of either sex (11-20 kg) were anesthetized with pentobarbital sodium (33 mg/kg, i.v.). the animals were intubated and ventilated with room air using a Harvard respirator. The abdominal aorta was catheterized with a Millar micro-tip (size: 5F) transducer via the right femoral artery for pressure monitoring. The right femoral vein was cannulated with PE-160 tubing for iv saline infusion, as well as, supplemental pentobarbital administration. The left renal artery was isolated through a lateral abdominal incision. An electromagnetic flowprobe of the appropriate size (9-12 mm circ) was placed around the artery and connected to a Carolina Medical electromagnetic flowmeter. Surface ECG leads were placed subcutaneously on the chest and limbs to monitor heart rate. A 25 gauge 3/4\" needle bent 90°, 4 mm from the tip, was placed in the renal artery proximal to the probe and connected to an infusion pump delivering saline at a constant rate of 1 ml/min. […] Blood pressure was maintained by supplemental saline (10-20 ml/kg, iv). Bradykinin, a standard for nonspecific vasodilation, was given at 0.62 nmole doses, in 0.2 ml saline, i.a., prior to generating a dose response curve for dopamine in which 4-fold increase doses, ranging from 3 to 48 nmoles, were injected i.a. in 0.2 ml of saline. Test compound was injected similarly in 4-fold increasing doses up to a maximum of 3000 nmoles. […] The optimal dose of compound was defined as that which produced a maximum increase in blood flow before causing a change in systemic blood pressure. Efficacy ratios were determined by division of the optimal response of the test compound by the optimal response of the standard agent. ED₅₀ values were derived by regression analysis from individually generated dose response curves. Potency ratios were the quotients calculated from the division of the standard agent ED₅₀ by the ED₅₀ of the test compound."}, "[2]": {"system": "spontaneously hypertensive rats", "assay": "Oral antihypertensive activity in conscious restrained spontaneously hypertensive rat", "format": "in vivo", "experimental": "The compounds of this invention were screened for oral antihypertensive activity in the conscious restrained rat. Adult male SHR were instrumented for blood pressure and heart rate measurements under light ether anesthesia. The animals were maintained on a plexiglass restraining board following surgery, and were allowed a 1 hour recovery period prior to the oral administration of the test compounds.\nMale spontaneously hypertensive rats, SHR/NVr1Br (320-410 g) were fasted overnight. The following morning the left femoral artery and vein of each rat was cannulated under light ether anesthesia. following surgery, the rats were placed on a rat restraining board and allowed to recover from the effects of the ether for 1 hour. ECG leads were placed on the animal's chest to monitor heart reate. Animals were divided into groups of 4 and dosed with the test compound (R₁ and R₂ = H; X = (CH₂)m; m = 6).\nBlood pressure and heart rate readings were taken at 5 minute intervals for the first 15 minutes and every 15 minutes thereafter for a duration of 4 hour post-compound administration. Data was evaluated by two-tailed paired t-tests."}, "[3]": {"system": "spontaneously hypertensive rat (SHR)", "assay": "Diuretic activity in saline-loaded spontaneously hypertensive rat", "format": "in vivo", "experimental": "Additionally, these compounds were examined for diuretic activity for 6 hours following oral compound administration in the saline-loaded spontaneously hypertensive rat (SHR). Methods for this assay have been previously described (Rosenkranz, et al, Proc. West. Pharmacol. Soc. 28:87, 1985). The diuretic and natriuretic effects elicited by these compounds were characterized by an immediate onset of action.\nMale spontaneously hypertensive SHR/NCr1BR rats weighing 320-430 gms were divided into four groups of seven animals. All animals were food- and water-deprived overnight. The following morning, each group of rats was hydrated with deionized water (20 ml/kg, po) forty-five minutes prior to the administration of vehicle or the test compound (R₁ and R₂ = H; X = (CH₂)n, m = 6).\nFollowing vehicle or drug, the rats were placed in individual metabolic units. Fifteen minutes post-dose the animals were saline-loaded (30 ml/kg, po). Urine was collected at 1, 3 and 6 hour intervals post-saline-load. Urine volumes were measured and sodium and potassium levels were determined by flame photometry.\nA two-way analysis of variance with time, treatment and their interaction was run as a repeated measures analysis. A secondary model of one-way analysis of variance (by time) was run using specified contrasts. The p-values for the contrasts were adjusted using Fisher's LSD strategy at each time point."}, "Rats": {"system": "Rats", "assay": "7-day toxicity in rats", "format": "in vivo", "conditions": "30 and 100 mg/kg once a day for 7 days", "experimental": "Rats were administered compound I (R₁ and R₂ = H; X = (CH₂)m; m = 6; R,R isomer) in doses of 30 and 100 mg/kg once a day for 7 days."}},
  "note": "Like-named read-outs stand apart in the source and are kept apart here.",
  "data": [
    {"smiles": "Cl.NCCc1ccc(O)c(O)c1", "note": "[DOPAMINE HYDROCHLORIDE, 3,4-Dihydroxyphenethylamine Hydrochlorid]", "values": [
      {"measurement": "Solubility", "setting": "[1]; in alcohol", "value": "soluble"},
      {"measurement": "Solubility", "setting": "[1]; in chloroform and ether", "value": "practically insoluble"},
      {"measurement": "Solubility", "setting": "[1]; in water", "value": "Freely soluble"}
    ]},
    {"smiles": "CCCN(CCC)CCc1ccc(O)c(O)c1", "note": "[DPDA, di-propyl dopamine]", "values": [
      {"measurement": "ED₅₀", "setting": "DA₂ receptor; femoral blood flow increase, injection into femoral artery, anesthetized dog", "value": 1.00, "unit": "nmol"},
      {"measurement": "Relative Efficacy to DA₂ Standard", "setting": "DA₂ receptor; optimal response divided by optimal response of DPDA", "value": 1.00}
    ]},
    {"smiles": "NCCc1ccc(O)c(O)c1", "note": "[Dopamine, 3-hydroxytyramine]", "values": [
      {"measurement": "Relative Efficacy to DA₁ Standard", "setting": "DA₁ receptor", "value": 1.00}
    ]},
    {"smiles": "Oc1ccc(C[C@H]2CCCN2CCCCCCN2CCC[C@@H]2Cc2ccc(O)c(O)c2)cc1O", "note": "[Test Compound, R,R-1,6-bis[2-(3,4-dihydroxybenzyl)pyrrolidin-1-yl]hexane]", "values": [
      {"measurement": "HR increase", "setting": "[2]; 3 mg/kg", "value": 6, "unit": "%"},
      {"measurement": "duration of HR increase", "setting": "[2]; 3 mg/kg", "value": 90, "unit": "min"},
      {"measurement": "HR max. response", "setting": "[2]; 10 mg/kg, decrease, p<0.05", "value": -14, "unit": "%"},
      {"measurement": "duration of HR decrease", "setting": "[2]; 10 mg/kg, post-compound administration", "value": 1, "unit": "h"},
      {"measurement": "HR change", "setting": "[2]; 30 mg/kg", "value": "did not elicit any biologically significant changes in HR"},
      {"measurement": "MBP change", "setting": "[2]; 3, 10 and 30 mg/kg", "value": "significant decrease in MBP"},
      {"measurement": "Peak decreases in MBP", "setting": "[2]; across 3, 10 and 30 mg/kg", "value": "-17 to -22", "unit": "%"},
      {"measurement": "duration of action (MBP decrease)", "setting": "[2]; across 3, 10 and 30 mg/kg", "value": "15 to 210", "unit": "min"},
      {"measurement": "urine and sodium retention", "setting": "[3]; 3 mg/kg, po, urine at 1 hour, sodium at 1 and 3 hours", "value": "significant urine and sodium retention"},
      {"measurement": "diuresis and natriuresis", "setting": "[3]; 10 mg/kg oral, one hour post administration", "value": "significant diuresis and natriuresis"},
      {"measurement": "diuresis and natriuresis", "setting": "[3]; 30 mg/kg, 1, 3 and 6 hours post-dose", "value": "diuresis and natriuresis (p<0.05) were observed"},
      {"measurement": "kaliuresis", "setting": "[3]; 30 mg/kg, po, 1 and 3 hour post-dose", "value": "significant kaliuresis"},
      {"measurement": "treatment related changes in clinical condition, body weight, or food intake", "setting": "Rats", "value": "No treatment related changes were noted"},
      {"measurement": "Relative Potency to DA₁ Standard", "setting": "DA₁ receptor; ED50 of dopamine divided by ED50 of test compound", "value": 11.71},
      {"measurement": "Relative Efficacy to DA₁ Standard", "setting": "DA₁ receptor", "value": 1.05},
      {"measurement": "ED₅₀", "setting": "DA₁ receptor; renal blood flow increase, injection into renal artery, anesthetized dog, phenoxybenzamine pretreated", "value": 0.63, "unit": "nmol"}
    ]}
  ]
}
